Data set [1] concerns the target Delta-type opioid receptor (Homo sapiens) (UniProt P41143).
Description: Antagonist activity at cloned human delta opioid receptor assessed as inhibition of DPDPE-induced [35S]GTPgammaS binding
Data set [2] addresses T1, Voltage-gated inwardly rectifying potassium channel KCNH2 (Homo sapiens, UniProt Q12809).
Description: (§1) Displacement of [3H]-astemizole from human ERG
Data set [3] can be described thus: Solubility of the compound in 10 mM phosphate buffer at pH 7.4 after 90 mins by LC/MS analysis. It is filed as physicochemical.
A short description of data set [4]: Metabolic stability of the compound in hepatic S9 fraction (unknown origin) assessed as compound remaining at 10 uM after 60 mins. It is filed as ADME, tissue-based, Liver. As to conditions: read-out: Stability.
A short description of data set [5]: Solubility of the compound in 10 mM phosphate buffer at pH 3 after 90 mins by LC/MS analysis. It is filed as physicochemical.
The target in data set [6] is T1, Voltage-gated inwardly rectifying potassium channel KCNH2. The source holds these as a separate data set.
Description: as §1
The nature of data set [7]: Permeability of the compound at pH 7.4 at 10 uM by PAMPA. It is filed as physicochemical. As to conditions: pH 7.4, 10 µM.
The nature of data set [8]: Metabolic stability of the compound in plasma (unknown origin) assessed as compound remaining at 10 uM after 60 mins. It is filed as ADME, cell-free. As to conditions: read-out: Stability.
Data set [9] is described as follows: Permeability of the compound at pH 5.5 at 10 uM by PAMPA. It is filed as physicochemical. Conditions: pH 5.5, 10 µM. (In PAMPA a lipid-coated filter parts donor from acceptor wells.)
The subject of data set [10] is MDCK. The data set is described as follows: Permeability from apical to basolateral side in MDCK cells expressing human MDR1 at 10 uM after 1 hr by chromatography analysis. It is filed as ADME, cell-based, Canis lupus familiaris. Conditions: dog.

The values below come from ChEMBL document CHEMBL3612054 (Bioorg Med Chem, 2015).

pKi: −log10 of the molar value. Values after ≈ are worked out from the molar mass of the structure shown.

T1 sequence (Q12809 whole entry): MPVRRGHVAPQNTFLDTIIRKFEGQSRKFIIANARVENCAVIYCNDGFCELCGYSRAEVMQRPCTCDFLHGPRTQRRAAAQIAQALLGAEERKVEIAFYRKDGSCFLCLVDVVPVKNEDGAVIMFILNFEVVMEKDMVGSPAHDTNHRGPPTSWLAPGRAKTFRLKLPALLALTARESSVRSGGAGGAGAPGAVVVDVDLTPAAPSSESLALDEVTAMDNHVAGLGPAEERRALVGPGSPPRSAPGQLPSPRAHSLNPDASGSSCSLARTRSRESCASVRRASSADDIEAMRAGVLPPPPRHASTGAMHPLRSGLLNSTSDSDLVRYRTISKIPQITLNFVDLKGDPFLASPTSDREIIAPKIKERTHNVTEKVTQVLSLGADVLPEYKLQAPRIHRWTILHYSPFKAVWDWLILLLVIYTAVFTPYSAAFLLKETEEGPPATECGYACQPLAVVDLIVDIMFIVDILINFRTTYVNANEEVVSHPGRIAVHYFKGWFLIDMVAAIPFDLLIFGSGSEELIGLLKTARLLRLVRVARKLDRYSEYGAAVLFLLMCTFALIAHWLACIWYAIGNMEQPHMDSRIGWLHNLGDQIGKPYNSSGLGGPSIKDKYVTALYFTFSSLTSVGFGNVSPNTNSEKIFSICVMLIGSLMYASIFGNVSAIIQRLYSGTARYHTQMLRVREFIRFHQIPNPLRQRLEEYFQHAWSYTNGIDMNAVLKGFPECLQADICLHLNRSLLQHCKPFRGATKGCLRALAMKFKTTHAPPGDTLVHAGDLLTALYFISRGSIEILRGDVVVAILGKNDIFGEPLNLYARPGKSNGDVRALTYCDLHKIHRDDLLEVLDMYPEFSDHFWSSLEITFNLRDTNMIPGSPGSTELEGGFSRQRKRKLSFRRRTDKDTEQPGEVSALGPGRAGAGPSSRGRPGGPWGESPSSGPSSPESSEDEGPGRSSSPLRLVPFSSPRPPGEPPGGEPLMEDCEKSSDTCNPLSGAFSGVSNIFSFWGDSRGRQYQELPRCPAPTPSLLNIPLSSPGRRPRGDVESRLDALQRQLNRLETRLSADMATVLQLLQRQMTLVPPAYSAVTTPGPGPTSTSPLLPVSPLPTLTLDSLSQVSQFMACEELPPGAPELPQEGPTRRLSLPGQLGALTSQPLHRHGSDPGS
Delta-type opioid receptor (Homo sapiens), sequence (P41143 whole entry): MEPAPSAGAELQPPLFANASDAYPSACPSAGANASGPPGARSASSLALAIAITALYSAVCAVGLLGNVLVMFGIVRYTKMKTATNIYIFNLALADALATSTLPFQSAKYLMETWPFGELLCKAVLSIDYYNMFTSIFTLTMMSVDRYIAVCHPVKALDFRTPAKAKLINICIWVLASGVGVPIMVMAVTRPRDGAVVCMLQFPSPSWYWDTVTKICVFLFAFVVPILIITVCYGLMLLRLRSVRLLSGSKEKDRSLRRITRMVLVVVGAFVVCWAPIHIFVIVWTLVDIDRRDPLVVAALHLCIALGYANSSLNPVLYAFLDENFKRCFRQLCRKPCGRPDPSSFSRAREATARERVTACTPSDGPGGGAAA

In general, pKi refers to the negative decadic logarithm of the Ki, by convention in mol/L. With `CC(C)[C@@H](CN1CCC(c2ccccc2)CC1)NC(=O)[C@H]1Cc2ccc(O)cc2CN1`, the Ke in [1] was 281 nM. Moreover, in data set [2], the pKi was 6.11.
`CC(C)[C@@H](CN1CCC(c2cccc(F)c2)CC1)NC(=O)[C@H]1Cc2ccc(O)cc2CN1` gave a pKi in [2] of 6.36.
The term solubility denotes the dissolved amount per volume that the medium holds. Low values mean little dissolved substance, high ones much dissolved substance. With `CC(C)[C@@H](CN1CC[C@@](C)(c2ccccc2)[C@@H](C)C1)NC(=O)[C@H]1Cc2ccc(O)cc2CN1`, the solubility in data set [3] amounted to 11 µM (≈ 4.95 µg/mL); in data set [5] it was 42 µM (≈ 18.9 µg/mL). Also, the remaining at 1 h, 10 µM was determined as 82% in data set [4] and 67% in data set [8]. In data set [6], this compound gave a pKi of 5.15. The permeability in [7] was 91.4%; in data set [9], 67.3%; in data set [10] it was 27%.
Take `CC(C)[C@@H](CN1CC[C@@](C)(c2cccc(O)c2)[C@@H](C)C1)NC(=O)[C@H]1Cc2ccc(O)cc2CN1` [JDTIC]: the results for the solubility in data set [3] and in data set [5] were 11 µM (≈ 5.12 µg/mL) and 34 µM (≈ 15.8 µg/mL), respectively. The remaining at 1 h, 10 µM in data set [4] stood at 76%; in [8], 97%. The same compound had a pKi in data set [6] of 5.05. Also, the permeability in [9] amounted to 57.9%; in [10], 11%.
`CC(C)[C@@H](CN1CCC(C)(c2cccc(F)c2)CC1)NC(=O)[C@H]1Cc2ccc(O)cc2CN1`: in data set [2], the pKi was 5.37. This compound also displayed a permeability in [10] of 1.3%.
